Results as given in patent US12576137B2, “Collagen hydrolysate comprising GPCR ligand peptide” (Industry-Academic Cooperation Foundation, Yonsei University, priority 2021, dated 2026).

Experiments:
Caco-2 cells = assay: Wound healing (scratch) assay; format: cell-based, human; conditions: pre-incubated with 0.1 μM CID 2745687
ERK1/2 signaling pathway = conditions: pre-treated with 0.1 μM CID 2745687 for 1 hour

Row | Compound | wound-healing activity after GPR35 inhibition (Caco-2 cells) | ERK1/2 phosphorylation increase when treated with CID 2745687 (ERK1/2 signaling pathway)
1 | human epidermal growth factor [EGF, a well-known wound therapeutic agent, positive control] | not inhibited | –
2 | CCCOc1ccccc1-c1nc2nn[nH]c2c(=O)[nH]1 [zaprinast] | abolished | reversed
